Data on ten molecules can be found in US10933061B2 (Shepherd Therapeutics, Inc., priority 2017, dated 2021).

SMILES strings stand for the structures. Several values for one entry are separate records, joined by “and”; a condition that tells them apart may be missing. Identical values can stand only once. Like-named read-outs stand apart in the source and are kept apart here.

Test in all cases: Chou-Talalay combination assay, Cell Titer Glo
A general note: In ATP-based viability assays light output follows the ATP content of the culture.

Assay [1] relates to carcinoid tumor cell line STC-1. Format: cell-based. The note with it: combination with pyrvinium pamoate, 72 hour incubation.
Method: (§1) Following a 72 hour incubation, cell viability was determined using Cell Titer Glo.
In assay [2] the test system is SK-LMS-1 leiomyosarcoma cells. Format: cell-based. Particulars: combination with pyrvinium pamoate, 72 hour incubation.
Method: as §1
Assay [3] has as its system TFK-1 cholangiocarcinoma cells. Format: cell-based. Particulars: combination with pyrvinium pamoate, 72 hour incubation.
Method: as §1
For assay [4], the system named is TC-32 Ewing's sarcoma cells. It is filed as cell-based. The note with it: combination with pyrvinium pamoate, 72 hour incubation.
Method: as §1
In assay [5] the test system is COV362 ovarian carcinoma cells. Format: cell-based. Particulars: combination with pyrvinium pamoate, 72 hour incubation.
Method: as §1
Assay [6] deals with Rh30 rhabdomyosarcoma cells. Format: cell-based. The note with it: combination with pyrvinium pamoate, 72 hour incubation.
Method: as §1
Assay [7] deals with Kato-III gastric carcinoma cells. Format: cell-based. The note with it: Kato-III; combination with pyrvinium pamoate; 72 hour incubation.
Method: as §1
Assay [8] has as its system Flo-1 esophageal carcinoma cells. It is filed as cell-based. The note with it: 72 hour incubation; for CI range: combination with pyrvinium pamoate.
Method: as §1
In assay [9] the test system is HCT116 colorectal carcinoma cells. Format: cell-based. Particulars: combination with pyrvinium pamoate, 72 hour incubation.
Method: as §1
The subject of assay [10] is Rh41 rhabdomyosarcoma cells. It is filed as cell-based. The note with it: combination with pyrvinium pamoate, 72 hour incubation.
Method: as §1
Assay [11] relates to Colo-205 colorectal carcinoma cells. It is filed as cell-based. The note with it: combination with pyrvinium pamoate, 72 hour incubation.
Method: as §1
Assay [12] has as its system UM-Chor1 chordoma cell line. Format: cell-based. The note with it: combination with pyrvinium pamoate, 72 hour incubation.
Method: as §1
Assay [13] deals with NCI-H295R adrenocortical carcinoma cells. Format: cell-based. Particulars: combination with pyrvinium pamoate, 72 hour incubation.
Method: as §1
Assay [14] has as its system TC-71 Ewing's sarcoma cells. It is filed as cell-based. Particulars: combination with pyrvinium pamoate, 72 hour incubation.
Method: as §1
The subject of assay [15] is TOV-112D ovarian carcinoma cells. It is filed as cell-based. Particulars: 72 hour incubation; for CI range: combination with pyrvinium pamoate.
Method: as §1
The test system of assay [16] is SNU-16 gastric carcinoma cells. It is filed as cell-based. Particulars: 72 hour incubation; for CI range: combination with pyrvinium pamoate.
Method: as §1
The test system of assay [17] is BxPC-3 pancreatic carcinoma cells. The note with it: 72 hour incubation; for CI range: combination with pyrvinium pamoate.
Method: as §1
Assay [18] relates to GIST-1 gastrointestinal stromal tumor cells. Format: cell-based. Particulars: 72 hour incubation; for CI range: combination with pyrvinium pamoate.
Method: as §1
The subject of assay [19] is CCC-5 cholangiocarcinoma cells. Format: cell-based. The note with it: combination with pyrvinium pamoate, 72 hour incubation.
Method: as §1
For assay [20], the system named is OE-33 esophageal carcinoma cells. It is filed as cell-based. Particulars: combination with pyrvinium pamoate, 72 hour incubation.
Method: as §1
For assay [21], the system named is SW13 adrenocortical carcinoma cells. It is filed as cell-based. Particulars: combination with pyrvinium pamoate, 72 hour incubation.
Method: as §1
Assay [22] has as its system Hs766t pancreatic carcinoma cells. Format: cell-based. Particulars: combination with pyrvinium pamoate, 72 hour incubation.
Method: as §1
The subject of assay [23] is LO-68 mesothelioma cells. It is filed as cell-based. Particulars: combination with pyrvinium pamoate, 72 hour incubation.
Method: as §1
For assay [24], the system named is JU-77 mesothelioma cells. It is filed as cell-based. The note with it: combination with pyrvinium pamoate, 72 hour incubation.
Method: as §1
The subject of assay [25] is SK-UT-1B leiomyosarcoma cells. It is filed as cell-based. The note with it: combination with pyrvinium pamoate, 72 hour incubation.
Method: as §1
The subject of assay [26] is SK-UT-1 leiomyosarcoma cells. It is filed as cell-based. Particulars: 72 hour incubation.
Method: as §1
Assay [27] deals with CHP-212 neuroblastoma cells. Format: cell-based. Particulars: combination with pyrvinium pamoate, 72 hour incubation.
Method: as §1
In assay [28] the test system is SK-N-AS neuroblastoma cells. It is filed as cell-based.
Method: as §1
Setting [29] is: SK-N-AS, combination with pyrvinium pamoate, 72 hour incubation.

As for `O=c1[nH]cc(F)c(=O)[nH]1` [5-FU, 5-Fluorouracil], the CI range is on record as 0.596-0.841 in assay [1]; 0.421-0.814 in [2]; 0.303-0.814 in [3]; 0.337-0.843 in assay [4]; 0.472-0.723 in assay [5]; 0.001-0.887 in assay [6]. The CI range is 0.378-0.859 in assay [8]; 0.806-0.886 in [9]; 0.642-0.831 in assay [10]; 0.094-0.867 in assay [11]; 0.489-0.886 in assay [12]; 0.529-0.780 in assay [13]. For the same molecule, the CI range in assay [14] was 0.409-0.821; in [16], 0.547-0.850; in assay [17] it was 0.539-0.785; in assay [18], 0.168-0.798; in assay [19], 0.319-0.892; in assay [20], 0.481-0.715. Further, the CI range in assay [21] is 0.506-0.834; in assay [22] it was 0.328-0.504 and 0.230-0.589. The “Synergy with pyrvinium pamoate” value in [7] and in [15] was “No” throughout.
Turning to `CCC1=C[C@@H]2CN(C1)Cc1c([nH]c3ccccc13)[C@@](C(=O)OC)(c1cc3c(cc1OC)N(C)[C@H]1[C@@](O)(C(=O)OC)[C@H](OC(C)=O)[C@]4(CC)C=CCN5CC[C@]31[C@@H]54)C2` [Vinorelbine], the values for the CI range in assay [23] and in assay [24] were 0.163-0.845 and 0.454-0.717, respectively.
Take `CCc1c2c(nc3ccc(OC(=O)N4CCC(N5CCCCC5)CC4)cc13)-c1cc3c(c(=O)n1C2)COC(=O)[C@]3(O)CC` [Irinotecan]: the CI range in [2] was 0.362-0.885; in [4], 0.612-0.764; in [5] it was 0.445-0.697; in assay [6] it was 0.324-0.872; in [7], 0.258-0.892; in assay [9], 0.582-0.878. Further, the CI range in [10] is on record as 0.068-0.711; in [11], 0.158-0.866; in assay [12], 0.580-0.772; in [13], 0.285-0.855; in [25], 0.235-0.705; in [14], 0.466-0.803. Besides, the CI range is 0.414-0.760 in [15]; 0.039-0.837 in assay [18]; 0.438-0.783 in assay [20]; 0.719-0.891 in [27]; 0.652-0.827 in assay [21]. The “Synergy with pyrvinium pamoate” value in [8], in assay [16], in [17] and in assay [26] was “No” throughout.
Turning to `N.N.O=C([O-])C1(C(=O)[O-])CCC1.[Pt+2]` [Carboplatin], the CI range is 0.366-0.812 in assay [2]; 0.101-0.836 in [4]; 0.447-0.837 in [5]; 0.770-0.821 in assay [6]; 0.221-0.887 in [7]; 0.253-0.892 in [8]. Further, the CI range is 0.162-0.820 in assay [10]; 0.410-0.801 in assay [23]; 0.190-0.896 in [13]; 0.597-0.878 in assay [14]; 0.506-0.845 in [15]; 0.267-0.860 and 0.261-0.842 in [16]. For the same molecule, the CI range is on record as 0.385-0.853 in [24]; 0.647-0.863 in assay [20]; 0.519-0.846 in assay [27]; 0.107-0.843 in [28] (setting [29]); 0.408-0.891 in assay [21]. Also, in assay [18], the “Synergy with pyrvinium pamoate” value is listed as “No”.
`CC(=O)O[C@H]1C(=O)[C@@]2(C)[C@H]([C@H](OC(=O)c3ccccc3)[C@]3(O)C[C@H](OC(=O)[C@H](O)[C@@H](NC(=O)c4ccccc4)c4ccccc4)C(C)=C1C3(C)C)[C@]1(OC(C)=O)CO[C@@H]1C[C@@H]2O` [Paclitaxel]: the CI range is given as 0.479-0.873 in assay [1]; 0.078-0.847 in assay [2]; 0.277-0.894 in assay [3]; 0.586-0.884 in assay [4]; 0.451-0.761 in assay [5]; 0.362-0.829 in assay [6]. Moreover, the CI range is given as 0.076-0.898 in assay [7]; 0.640-0.888 in assay [8]; 0.073-0.876 in [10]; 0.573-0.862 in assay [12]; 0.571-0.887 in [13]; 0.262-0.773 in [25]. Also, the CI range in assay [14] was 0.254-0.721; in assay [15], 0.104-0.877; in assay [16], 0.178-0.820; in [17] it was 0.613-0.899; in assay [18] it was 0.399-0.808; in [19], 0.255-0.847 and 0.296-0.785. The CI range result is “(0.089-0.330)” in [26] (combination with pyrvinium pamoate); 0.527-0.896 in [20]; 0.545-0.868 in [27]; 0.367-0.857 in [28] (setting [29]); 0.552-0.870 in [21]; 0.232-0.830 in assay [22].
In the case of `C#Cc1cccc(Nc2ncnc3cc(OCCOC)c(OCCOC)cc23)c1` [Erlotinib], the CI range in assay [12] was 0.308-0.883.
With `Cc1ccc(NC(=O)c2ccc(CN3CCN(C)CC3)cc2)cc1Nc1nccc(-c2cccnc2)n1` [Imatinib], the CI range in assay [18] is 0.203-0.726.
Regarding `CC(=O)O[C@@]12CO[C@@H]1C[C@H](O)[C@@]1(C)C(=O)[C@H](O)C3=C(C)[C@@H](OC(=O)[C@H](O)[C@@H](NC(=O)OC(C)(C)C)c4ccccc4)C[C@@](O)([C@@H](OC(=O)c4ccccc4)[C@H]21)C3(C)C` [Docetaxel], the “Synergy with pyrvinium pamoate” value in [15] was “No”.
For `O=P1(N(CCCl)CCCl)NCCCO1` (stereo not shown) [Cyclophosphamide], the CI range in assay [1] is 0.167-0.751; in assay [6], 0.083-0.786; in assay [10], 0.274-0.867; in assay [14], 0.718-0.722; in [27], 0.256-0.876; in [28], “Yes- (0.098-0.858)”.
For the molecule `O=P1(NCCCl)OCCCN1CCCl` (stereo not shown) [Ifosfamide], in assay [25], the CI range is 0.285-0.315.
